# Measurements from patent US20220135590A1, “ISOXAZOLE COMPOUNDS FOR THE TREATMENT OF DISEASES ASSOCIATED WITH HBV INFECTIONS” (Janssen Science Ireland Unlimited Company, priority 2017, published 2022).
# Test system: HBV
# Experiment: HBV replication inhibition assay (BDNA assay) in HepG2.2.15 cells
# Type: cell-based
# Conditions: Hepatitis B virus, 144 h, 6 days incubation, encapsidated HBV DNA in supernatant by branched DNA QuantiGene assay
# Procedure: HBV Replication Inhibition Assay
# HBV replication inhibition by the disclosed compounds were determined in cells infected or transfected with HBV or cells with stably integrated HBV, such as HepG2.2.15 cells (Sells et al. 1987). In this example, HepG2.2.15 cells were maintained in cell culture medium containing 10% fetal bovine serum (FBS), Geneticin, L-glutamine, penicillin and streptomycin. HepG2.2.15 cells were seeded in 96-well plates at a density of 40,000 cells/well and were treated with serially diluted compounds at a final DMSO concentration of 0.5% either alone or in combination by adding drugs in a checker box format. Cells were incubated with compounds for three days, after which medium was removed and fresh medium containing compounds was added to cells and incubated for another three days. At day 6, supernatant was removed and treated with DNase at 37° C. for 60 minutes, followed by enzyme inactivation at 75° C. for 15 minutes. Encapsidated HBV DNA was released from the virions and covalently linked HBV polymerase by incubating in lysis buffer (Affymetrix QS0010) containing 2.5 μg proteinase K at 50° C. for 40 minutes. HBV DNA was denatured by addition of 0.2 M NaOH and detected using a branched DNA (BDNA) QuantiGene assay kit according to manufacturer recommendation (Affymetrix). HBV DNA levels were also quantified using qPCR, based on amplification of encapsidated HBV DNA extraction with QuickExtraction Solution (Epicentre Biotechnologies) and amplification of HBV DNA using HBV specific PCR probes that can hybridize to HBV DNA and a fluorescently labeled probe for quantitation. In addition, cell viability of HepG2.2.15 cells incubated with test compounds alone or in combination was determined by using CellTitre-Glo reagent according to the manufacturer protocol (Promega). The mean background signal from wells containing only culture medium was subtracted from all other samples, and percent inhibition at each compound concentration was calculated by normalizing to signals from HepG2.2.15 cells treated with 0.5% DMSO using equation E1.
# % inhibition (DMSOave−Xi)DMSOave×100% E1:
# where DMSOave is the mean signal calculated from the wells that were treated with DMSO control (0% inhibition control) and X^1 is the signal measured from the individual wells. EC50 values, effective concentrations that achieved 50% inhibitory effect, were determined by non-linear fitting using Graphpad Prism software (San Diego, Calif.) and equation E2.
# Y=Ymin+(Ymax−Ymin)/(1+10(Log EC50−X)×HillSlope) E2:
# where Y represents percent inhibition values and X represents the logarithm of compound concentrations.
# Selected disclosed compounds were assayed in the HBV replication assay (BDNA assay), as described above, and a representative group of these active compounds is shown in Table 3. […] In Table 3, “A” represents 1 nM<EC50≤100 nM; “B” represents 100 nM<EC50≤1,000 nM; and “C” represents 1,000 nM<EC50≤10,000 nM.
row,Compound,EC50 [nM]
1,"C[C@H]1Cc2noc(-c3ncccn3)c2CN1C(=O)Nc1ccc(F)c(C#N)c1 [Example 1, (S)—N-(3-Cyano-4-fluorophenyl)-6-methyl-3-(pyrimidin-2-yl)-6,7-dihydroisoxazolo[4,3-c]pyridine-5(4H)-carboxamide]",1 to 100
2,"C[C@H]1Cc2noc(-c3ncccn3)c2CN1C(=O)Nc1ccnc(C(F)F)c1F [Example 2, (S)—N-(2-(Difluoromethyl)-3-fluoropyridin-4-yl)-6-methyl-3-(pyrimidin-2-yl)-6,7-dihydroisoxazolo[4,3-c]pyridine-5(4H)-carboxamide]",1 to 100
3,"C[C@H]1Cc2noc(-c3ncccn3)c2CN1C(=O)Nc1ccc(F)c(C(F)(F)F)c1 [Example 3, (S)—N-(4-Fluoro-3-(trifluoromethyl)phenyl)-6-methyl-3-(pyrimidin-2-yl)-6,7-dihydroisoxazolo[4,3-c]pyridine-5(4H)-carboxamide]",1 to 100
4,"C[C@H]1Cc2noc(-c3ncccn3)c2CN1C(=O)Nc1ccnc(Br)c1F [Example 4, (S)—N-(2-Bromo-3-fluoropyridin-4-yl)-6-methyl-3-(pyrimidin-2-yl)-6,7-dihydroisoxazolo[4,3-c]pyridine-5(4H)-carboxamide]",1 to 100
5,"C[C@H]1Cc2onc(-c3ncccn3)c2CN1C(=O)Nc1ccc(F)c(C#N)c1 [Example 5, (S)—N-(3-Cyano-4-fluorophenyl)-6-methyl-3-(pyrimidin-2-yl)-6,7-dihydroisoxazolo[4,5-c]pyridine-5(4H)-carboxamide]",1 to 100
6,"C[C@H]1Cc2onc(-c3ncccn3)c2CN1C(=O)Nc1ccnc(C(F)F)c1F [Example 6, (S)—N-(2-(Difluoromethyl)-3-fluoropyridin-4-yl)-6-methyl-3-(pyrimidin-2-yl)-6,7-dihydroisoxazolo[4,5-c]pyridine-5(4H)-carboxamide]",1 to 100
7,"C[C@H]1Cc2onc(-c3ncccn3)c2CN1C(=O)Nc1ccc(F)c(C(F)(F)F)c1 [Example 7, (S)—N-(4-Fluoro-3-(trifluoromethyl)phenyl)-6-methyl-3-(pyrimidin-2-yl)-6,7-dihydroisoxazolo[4,5-c]pyridine-5(4H)-carboxamide]",100 to 1000
8,"C[C@H]1Cc2onc(-c3ncccn3)c2CN1C(=O)Nc1ccnc(Br)c1F [Example 8, (S)—N-(2-Bromo-3-fluoropyridin-4-yl)-6-methyl-3-(pyrimidin-2-yl)-6,7-dihydroisoxazolo[4,5-c]pyridine-5(4H)-carboxamide]",100 to 1000
9,"CC1(C)CN(C(=O)Nc2ccc(F)c(C#N)c2)Cc2c1noc2-c1ncccn1 [Example 9, N-(3-Cyano-4-fluorophenyl)-7,7-dimethyl-3-(pyrimidin-2-yl)-6,7-dihydroisoxazolo[4,3-c]pyridine-5(4H)-carboxamide]",1 to 100
10,"CC1(C)CN(C(=O)Nc2ccc(F)c(C(F)(F)F)c2)Cc2c1noc2-c1ncccn1 [Example 10, N-(4-Fluoro-3-(trifluoromethyl)phenyl)-7,7-dimethyl-3-(pyrimidin-2-yl)-6,7-dihydroisoxazolo[4,3-c]pyridine-5(4H)-carboxamide]",100 to 1000
11,"CC1(C)CN(C(=O)Nc2ccnc(C(F)F)c2F)Cc2c1noc2-c1ncccn1 [Example 11, N-(2-(Difluoromethyl)-3-fluoropyridin-4-yl)-7,7-dimethyl-3-(pyrimidin-2-yl)-6,7-dihydroisoxazolo[4,3-c]pyridine-5(4H)-carboxamide]",100 to 1000
12,"CC1(C)CN(C(=O)Nc2ccnc(Br)c2F)Cc2c1noc2-c1ncccn1 [Example 12, N-(2-Bromo-3-fluoropyridin-4-yl)-7,7-dimethyl-3-(pyrimidin-2-yl)-6,7-dihydroisoxazolo[4,3-c]pyridine-5(4H)-carboxamide]",1 to 100
13,"CC1(C)CN(C(=O)Nc2ccc(F)c(C#N)c2)Cc2c(-c3ncccn3)noc21 [Example 13, N-(3-Cyano-4-fluorophenyl)-7,7-dimethyl-3-(pyrimidin-2-yl)-6,7-dihydroisoxazolo[4,5-c]pyridine-5(4H)-carboxamide]",100 to 1000
14,"CC1(C)CN(C(=O)Nc2ccc(F)c(C(F)(F)F)c2)Cc2c(-c3ncccn3)noc21 [Example 14, N-(4-Fluoro-3-(trifluoromethyl)phenyl)-7,7-dimethyl-3-(pyrimidin-2-yl)-6,7-dihydroisoxazolo[4,5-c]pyridine-5(4H)-carboxamide]",1000 to 10000
15,"CC1(C)CN(C(=O)Nc2ccnc(C(F)F)c2F)Cc2c(-c3ncccn3)noc21 [Example 15, N-(2-(Difluoromethyl)-3-fluoropyridin-4-yl)-7,7-dimethyl-3-(pyrimidin-2-yl)-6,7-dihydroisoxazolo[4,5-c]pyridine-5(4H)-carboxamide]",100 to 1000
16,"CC1(C)CN(C(=O)Nc2ccnc(Br)c2F)Cc2c(-c3ncccn3)noc21 [Example 16, N-(2-Bromo-3-fluoropyridin-4-yl)-7,7-dimethyl-3-(pyrimidin-2-yl)-6,7-dihydroisoxazolo[4,5-c]pyridine-5(4H)-carboxamide]",1 to 100
